Source: PMC10838382 (Cancer Drug Resistance, 2024)
Where two headings read alike, the source gives them in different places.

Columns and labels:
[1] = test system: PRXF DU-145; assay: 2D proliferation assay (CellTiter-Blue); format: cell-based, human; conditions: Homo sapiens
[2] = test system: LXFA 737; assay: 2D proliferation assay (CellTiter-Blue); conditions: read-out: Relative docetaxel IC50
[3] = test system: DU-145; assay: 3D clonogenic assay (soft agar); conditions: Homo sapiens, DU-145, read-out: Docetaxel IC50, DU-145, 3D clonogenic assay
[4] = test system: LXFA EKVX; assay: cells; conditions: Homo sapiens, read-out: Relative docetaxel IC50
[5] = test system: OVXF NCI-ADR-RES; assay: cells; conditions: Homo sapiens, read-out: Relative docetaxel IC50
[6] = test system: PRXF 22Rv1; assay: 2D proliferation assay (CellTiter-Blue); format: cell-based; conditions: Homo sapiens
[7] = test system: OVXF EFO-27; assay: 2D proliferation assay (CellTiter-Blue); conditions: Homo sapiens, EFO-27, read-out: Relative docetaxel IC50
[8] = test system: MAXFTN CAL-51; assay: cells; conditions: Homo sapiens, CAL-51, read-out: Relative docetaxel IC50
[9] = test system: 22Rv1DOC8; assay: 3D clonogenic assay (soft agar); format: cell-based, human; conditions: for Relative resistance: 22Rv1DOC8 vs 22Rv1; for IC50: Homo sapiens
[10] = test system: DU-145DOC10; assay: 3D clonogenic assay (soft agar); format: cell-based, human; conditions: for Relative resistance: DU-145DOC10 vs DU-145
[11] = test system: GXA 3011; assay: cells; conditions: read-out: Relative docetaxel IC50
[12] = test system: 22Rv1; assay: 3D clonogenic assay (soft agar); conditions: Homo sapiens, 22Rv1, read-out: Docetaxel IC50, 22Rv1, 3D clonogenic assay
[13] = test system: GXA NUGC-4; assay: cells; conditions: Homo sapiens, NUGC-4, read-out: Relative docetaxel IC50
[14] = test system: PC-3M; assay: 2D proliferation assay (CellTiter-Blue); conditions: Homo sapiens, read-out: Relative docetaxel IC50
[15] = test system: 15 tumor cell lines; assay: 2D proliferation assay (CellTiter-Blue), panel of 15 tumor cell lines; conditions: read-out: mean relative IC50
[16] = Bidirectional permeability assay across Caco-2 monolayers; format: in vitro ADME, human; conditions: human
Procedure: (§1) Samples were analyzed using LC-MS/MS.
(§2) The medium was changed 24 h before the experiment. […] The bioanalysis of docetaxel was performed with the .
(§3) The following equation was used to calculate apparent permeability coefficient (Papp):
(§4) dQ: amount of transporter test drug in pmol; dT: incubation time in seconds; A: surface of porous membrane in cm^2 (standard: 0.7); C0: initial concentration of test agent in the donor chamber in pmol/cm^3.

[17] = test system: Caco-2 cell monolayers; assay: as above; format: in vitro ADME, human; conditions: for ER: inhibitor where named: valspodar 10 μM or ritonavir 50 μM
Procedure: as §1, §2, §3, §4

[18] = test system: PC-3; assay: 2D proliferation assay (CellTiter-Blue); format: cell-based; conditions: Homo sapiens
[19] = test system: OVXF 899; assay: cells; conditions: read-out: Relative docetaxel IC50
[20] = test system: MAXFLB MCF7; assay: cells; conditions: Homo sapiens, MCF7, read-out: Relative docetaxel IC50
[21] = test system: DU-145DOC10; assay: 2D proliferation assay, docetaxel-resistant subline; format: cell-based, human; conditions: for IC50: Homo sapiens
[22] = test system: MAXFTN MCF 10A; assay: cells; conditions: Homo sapiens, read-out: Relative docetaxel IC50
[23] = test system: 22Rv1DOC8; assay: 2D proliferation assay, docetaxel-resistant subline; format: cell-based, human; conditions: for IC50: Homo sapiens
[24] = test system: PC-3DOC3; assay: 2D proliferation assay, docetaxel-exposed subline; format: cell-based, human
[25] = test system: MAXFTN MX1; assay: 2D proliferation assay (CellTiter-Blue); conditions: read-out: Relative docetaxel IC50
[26] = without elacridar (elacridar experiment)
[27] = without ritonavir (ritonavir experiment)
[28] = docetaxel + elacridar 1 µM, 3D clonogenic assay
[29] = docetaxel + ritonavir 10 µM, 3D clonogenic assay
[30] = docetaxel without elacridar, 3D clonogenic assay
[31] = docetaxel without ritonavir, 3D clonogenic assay

IC50 ([1]; DU-145, DU-145, 2D culture, Figure 1, read-out: IC 50): 0.81 nM | IC50 ([1]; DU-145, PRXF DU-145, 2D proliferation assay, read-out: Relative docetaxel IC50): 0.9 nM | IC50 ([3]; + ritonavir 10 µM): 1.7 nM | IC50 [3, 26]: 1.1 nM | IC50 [3, 27]: 2.9 nM | IC50 [4]: 1.9 nM | IC50 [5]: > 100 nM | IC50 ([6]; 22Rv1, 2D culture, Figure 1, read-out: IC 50): 0.98 nM | IC50 ([6]; PRXF 22Rv1, 2D proliferation assay, read-out: Relative docetaxel IC50): 1.5 nM | IC50 [8]: 1.7 nM | fold decrease of relative IC50 of docetaxel by elacridar ([9]; 22Rv1DOC8, elacridar 1 µM as printed (lower of two concentrations), 3D clonogenic assay): 91 fold | fold decrease of relative IC50 of docetaxel by elacridar ([9]; 22Rv1DOC8, elacridar 10 µM as printed (higher of two concentrations), 3D clonogenic assay): 116 fold | fold decrease of docetaxel IC50 by ritonavir ([9]; 22Rv1DOC8, ritonavir 32 μM, 3D clonogenic assay): 84 fold | IC50 ([9]; 22Rv1DOC8, 3D clonogenic assay, + elacridar 1 µM, read-out: Docetaxel IC50): 1.3 nM | IC50 ([9]; 22Rv1DOC8, 3D clonogenic assay, + ritonavir 10 µM, read-out: Docetaxel IC50): 46.2 nM | IC50 ([9]; 22Rv1DOC8, 3D clonogenic assay, + ritonavir 32 µM, read-out: Docetaxel IC50): 3 nM | IC50 ([9]; 22Rv1DOC8, 3D clonogenic assay, without elacridar (elacridar experiment), read-out: Docetaxel IC50): 134 nM | IC50 ([9]; 22Rv1DOC8, 3D clonogenic assay, without ritonavir (32 μM ritonavir experiment, Figure 5), read-out: relative IC50 value of docetaxel): 219 nM | IC50 ([9]; 22Rv1DOC8, 3D clonogenic assay, without ritonavir (ritonavir experiment), read-out: Docetaxel IC50): 54.6 nM | IC50 ([9]; 22Rv1DOC8, docetaxel alone, Figure 5A, read-out: IC 50): 224 nM | IC50 ([10]; DU-145DOC10, 3D clonogenic assay, without elacridar (elacridar experiment), read-out: Docetaxel IC50): 11.7 nM | fold decrease of relative IC50 of docetaxel by elacridar ([10]; DU-145DOC10, elacridar 1 µM as printed (lower of two concentrations), 3D clonogenic assay): 6 fold | fold decrease of relative IC50 of docetaxel by elacridar ([10]; DU-145DOC10, elacridar 10 µM as printed (higher of two concentrations), 3D clonogenic assay): 7.1 fold | fold lower docetaxel IC50 on addition of ritonavir ([10]; DU-145DOC10, ritonavir 10 µM, 3D clonogenic assay): 3.4 fold | IC50 ([10]; Homo sapiens, DU-145DOC10, 3D clonogenic assay, + elacridar 1 µM, read-out: Docetaxel IC50): 1.6 nM | IC50 ([10]; Homo sapiens, DU-145DOC10, 3D clonogenic assay, + elacridar, first of two values both printed as 1 μM (Figure 6 legend), read-out: Docetaxel IC50): 1.9 nM | IC50 ([10]; Homo sapiens, DU-145DOC10, 3D clonogenic assay, + ritonavir 10 µM, read-out: Docetaxel IC50): 2.8 nM | IC50 ([10]; Homo sapiens, DU-145DOC10, 3D clonogenic assay, without elacridar (elacridar experiment), read-out: Docetaxel IC50): 11.4 nM | IC50 ([10]; Homo sapiens, DU-145DOC10, 3D clonogenic assay, without ritonavir (ritonavir experiment), read-out: Docetaxel IC50): 9.5 nM | IC50 ([10]; Homo sapiens, DU-145DOC10, docetaxel alone, Figure 4A, read-out: IC 50): 9.37 nM | IC50 ([10]; Homo sapiens, DU-145DOC10, docetaxel alone, Figure 6A, read-out: IC 50): 11.4 nM | IC50 [11]: 0.5 nM | IC50 ([12]; + ritonavir 10 µM): 1.8 nM | IC50 [12, 26]: 1.3 nM | IC50 [12, 27]: 1.3 nM | IC50 [13]: 5.5 nM | IC50 [14]: 2.4 nM | IC50 [15]: 2.6 nM | Papp A→B at 60 min, 5 μM ([16]; Caco-2): 0.29 ± 0.06 ×10⁻⁶ cm/s | Papp A→B at 60 min, 10 μM ([16]; Caco-2): 0.66 ± 0.02 ×10⁻⁶ cm/s | Papp A→B at 120 min, 5 μM ([16]; Caco-2): 0.81 ± 0.06 ×10⁻⁶ cm/s | Papp A→B at 120 min, 10 μM ([16]; Caco-2): 0.91 ± 0.15 ×10⁻⁶ cm/s | Papp B→A at 60 min, 5 μM ([16]; Caco-2): 20.3 ± 0.25 ×10⁻⁶ cm/s | Papp B→A at 60 min, 10 μM ([16]; Caco-2): 21 ± 0.78 ×10⁻⁶ cm/s | Papp B→A at 120 min, 5 μM ([16]; Caco-2): 35.4 ± 1.83 ×10⁻⁶ cm/s | Papp B→A at 120 min, 10 μM ([16]; Caco-2): 29.6 ± 0.8 ×10⁻⁶ cm/s | efflux ratio at 60 min, 5 μM ([16]; Caco-2, docetaxel 5 μM, incubation 60 min, inhibitor where named: valspodar 10 μM or ritonavir 50 μM, read-out: ER): 69.5 | efflux ratio at 120 min, 5 μM ([16]; Caco-2, docetaxel 5 μM, incubation 120 min, inhibitor where named: valspodar 10 μM or ritonavir 50 μM, read-out: ER): 43.9 | efflux ratio at 60 min, 10 μM ([16]; Caco-2, docetaxel 10 μM, incubation 60 min, inhibitor where named: valspodar 10 μM or ritonavir 50 μM, read-out: ER): 31.8 ± 1.54 | efflux ratio at 120 min, 10 μM ([16]; Caco-2, docetaxel 10 μM, incubation 120 min, inhibitor where named: valspodar 10 μM or ritonavir 50 μM, read-out: ER): 32.7 | ER values ([17]; both at 5 and 10 μM docetaxel, no inhibitor): > 2 | ER ([17]; docetaxel 5 μM, incubation 60 min): 69.46 ± 13.24 | ER ([17]; docetaxel 5 μM, incubation 120 min): 43.85 ± 3.80 | ER ([17]; docetaxel 10 μM, incubation 120 min): 32.66 ± 5.35 | IC50 ([18]; PC-3, read-out: Relative docetaxel IC50): 1.9 nM | IC50 [19]: 20.2 nM | IC50 [20]: 1.1 nM | IC50 ([21]; DU-145DOC10 (passage 10 nM docetaxel), 2D proliferation assay, read-out: Docetaxel IC50): 17.8 nM | IC50 ([21]; DU-145DOC10, 2D culture, Figure 1, read-out: IC 50): 17.8 nM | IC50 [22]: 0.7 nM | IC50 ([23]; 22Rv1-DOC8 (passage 8 nM docetaxel), 2D proliferation assay, read-out: Docetaxel IC50): 134 nM | IC50 ([23]; 22Rv1DOC8, 2D culture, Figure 1, read-out: IC 50): 134 nM | IC50 ([24]; Homo sapiens, PC-3DOC3 (passage 2 nM docetaxel)): 4.4 nM
SMILES: CC(=O)O[C@@]12CO[C@@H]1C[C@H](O)[C@@]1(C)C(=O)[C@H](O)C3=C(C)[C@@H](OC(=O)[C@H](O)[C@@H](NC(=O)OC(C)(C)C)c4ccccc4)C[C@@](O)([C@@H](OC(=O)c4ccccc4)[C@H]21)C3(C)C [Docetaxel]
IC50 ([1]; DU-145, DU-145 parental, 2D proliferation assay, read-out: Docetaxel IC50): 0.8 nM | IC50 [2]: 2.2 nM | IC50 ([6]; 22Rv1 parental, 2D proliferation assay, read-out: Docetaxel IC50): 1 nM | IC50 [7]: 0.7 nM | Relative resistance [9, 28]: 1.0 | Relative resistance [9, 29]: 35.5 | Relative resistance ([9]; docetaxel + ritonavir 10 µM, 3D clonogenic assay, listed as docetaxel): 36 | Relative resistance ([9]; docetaxel + ritonavir 32 µM, 3D clonogenic assay): 2.3 | Relative resistance [9, 30]: 103.1 | Relative resistance [9, 31]: 42.0 | Relative resistance [10, 28]: 1.5 | Relative resistance [10, 29]: 1.0 | Relative resistance [10, 30]: 10.6 | Relative resistance [10, 31]: 3.3 | IC50 ([18]; PC-3 parental, read-out: Docetaxel IC50): 1.1 nM | Relative resistance ([21]; DU-145DOC10 vs DU-145, 2D proliferation assay): 22.3 | Relative resistance ([23]; 22Rv1-DOC8 vs 22Rv1, 2D proliferation assay): 133.6 | Relative resistance ([24]; PC-3DOC3 vs PC-3): 4.0 | IC50 [25]: 1.9 nM
